Read-outs that look alike come from different tables or passages of the source.
Legend:
[1] = Mouse weight during paclitaxel treatment; assay type: in vivo, nude mice; conditions: 15 mg/kg paclitaxel intraperitoneally 3 times per week
Experimental: FIG. 11 is a line graph indicating mouse weight in paclitaxel-treated and control groups. Tumor-bearing nude mice were treated i.p. with 15 mg/kg paclitaxel every other day. Animals were weighed before each injection on a digital scale. Each curve represents the mean weight±s.e.m. of 10 mice per day of treatment.
Approximately 4×10^6 human A549 NSCLC cells were resuspended in 50% Matrigel (BD Biosciences, Bedford, Mass.) and injected subcutaneously into the hind flanks of 8-wk old male athymic (nu/nu) nude mice (Taconic Farms, Inc., Hudson, N.Y.). When the average tumor volume reached ˜150 mm^3, mice (N=10 per group) were randomly assigned to the treatment or control group (Day 0). Mice were treated with vehicle (control) or 15 mg/kg paclitaxel (Bristol-Myers Squibb Co, Princeton, N.J.) intraperitoneally 3 times per week (on Mondays, Wednesdays, and Fridays). […] Tumor size was determined by digital caliper measurements (length and width in mm), and tumor volume (mm^3) was estimated using the formula (length×width^2)/2. Effects on tumor growth rate were assessed per mouse by determining the tumor volume on the day of treatment relative to the tumor volume on Day 0. Animals were sacrificed once morbidity became evident or their tumor size exceeded 1000 mm^3. […]

[2] = test system: A549 cells overexpressing miR-135a; experiment: Xenograft of A549 cells stably overexpressing miR-135a, paclitaxel treatment; assay type: in vivo, nude mice; conditions: paclitaxel three times a week for 3 weeks
Experimental: (§1) A549 cells stably expressing either non-targeting premiR (A549-control) or premiR-135a (A549-miR-135a) were generated. (FIG. 8A) miR-135a expression level in A549-control and -miR-135a was determined and compared with A549 and A549TR cells using qRT-PCR analysis. *P<0.01. (FIG. 8B) Paclitaxel response of A549-control and A549-premiR-135a cells was determined using the MTT assay. (FIG. 8C) APC protein expression was examined using western blot analysis in A549-control and -premiR-135a cells. (FIG. 8D) A549-control and -premiR-135a cells were inoculated subcutaneously into the flanks of nude mice. Paclitaxel treatment was given three times a week for 3 weeks. The tumor size in each group was measured during the course of treatment and was calculated, relative to the size before treatment initiation. Each curve represents the average tumor growth±s.e.m. for 10 mice per group. **P<0.001 as determined by Wilcoxon's rank sum test.
(§2) The inventors subsequently investigated the role of miR-135a in paclitaxel sensitivity in vivo. […] As expected, miR-135a […] attenuated paclitaxel-induced cell death (FIG. 8B) and APC protein expression (FIG. 8C) relative to control transfected A549 cells in vitro. […] Paclitaxel treatment was given three times a week for 3 weeks, and tumor size in each group was monitored during the course of treatment. […]

A549 control cells = experiment: Xenograft of A549 control cells, paclitaxel treatment; assay type: in vivo, nude mice; conditions: paclitaxel three times a week for 3 weeks; P<0.001
Experimental: as §1, §2

T20.2 cells = experiment: cells; assay type: cell-based; conditions: Homo sapiens
Experimental: (FIG. 7A). The parental A549 cells, a cell line that became refractory during in vivo treatment with paclitaxel (T20.2 round 1) and the same cell line established after yet another round of in vivo paclitaxel treatment (T20.2 reinjection) were treated with paclitaxel and cell viability was assessed using the MTT assay. Represented are average LC50±s.e.m. determined by MTT assay for parental A549 cells (white boxes), **P<0.001, *P<0.05 as determined by Wilcoxon's rank sum test for T20.2 round 1 cells (hatched boxes) and for T20.2 re-injection cells (filled boxes). (FIG. 7B) The expression of miR-135a was examined in these cells by qRT-PCR. *P<0.05 as determined by Wilcoxon's rank sum test. […] The correlation between paclitaxel response and miR-135a expression was calculated using the Spearman's rank test. […] Subsequently, cells were treated with the indicated concentrations of paclitaxel and cell viability was assessed using the MTT assay. […]
Approximately 4×10^6 human A549 NSCLC cells were resuspended in 50% Matrigel (BD Biosciences, Bedford, Mass.) and injected subcutaneously into the hind flanks of 8-wk old male athymic (nu/nu) nude mice (Taconic Farms, Inc., Hudson, N.Y.). […] Tumor size was determined by digital caliper measurements (length and width in mm), and tumor volume (mm^3) was estimated using the formula (length×width^2)/2. […]

CC(=O)O[C@H]1C(=O)[C@@]2(C)[C@H]([C@H](OC(=O)c3ccccc3)[C@]3(O)C[C@H](OC(=O)[C@H](O)[C@@H](NC(=O)c4ccccc4)c4ccccc4)C(C)=C1C3(C)C)[C@]1(OC(C)=O)CO[C@@H]1C[C@@H]2O [paclitaxel]
mouse morbidity as measured by mouse weight [1]: minimal effects on mouse morbidity
in vivo growth under paclitaxel exposure [2]: not reduced
reduction of relative tumor burden at the end of the experiment (A549 control cells): 5 fold
CC50 (T20.2 cells; read-out: median LC50, after one in vivo passage (T20.2 round 1), MTT, P=0.030): 13.3 nM
CC50 (T20.2 cells; read-out: median LC50, after re-injection (T20.2 reinjection), MTT, P=0.008): 127 nM

Reference: patent US9687467B2, “Diagnosis and treatment of taxane-resistant cancers” (Children's Medical Center Corporation, priority 2011, dated 2017)
